The assay deals with pZeoLacZ plasmid DNA.

This is an account of results in patent US7491409B1, “Encapsulation of bioactive complexes in liposomes” (Transave, Inc., priority 1999, dated 2009).

Protocol: Each dialysis device was rotated on a 12 inch motorized wheel overnight (approximately 20 hours). The DNA-containing chamber was then withdrawn with repeated pipetting to mix the sample, and it was placed in a 250 μl volume cuvette. The absorbance at 400 nm was used to monitor turbidity against the buffer background.

In the case of `NCCCNCCCCNCCCN` [spermine], the “total spermine concentration sufficient to condense the DNA” value (in the presence of the amount of N-C12-DOPE used) came to 0.85 mM. Moreover, the “spermine concentration sufficient to condense the plasmid DNA” value (initial 250 μl emulsion, without N-C12-DOPE) is given as “approximately 0.6 mM”.
